Read-outs that look alike come from different tables or passages of the source.
Columns and labels:
A375 [1] = test: Proliferation, CellTiter-Glo 72 h, A375; type: cell-based; settings: Homo sapiens, A-375, A375, Melanoma, BRAF V600E, RAS WT
Text: (§1) Note that activity is especially strong on cell lines that harbor at least one mutation in BRAF or RAS.

WM2664 = test: Proliferation, CellTiter-Glo 72 h, WM2664; type: cell-based; settings: Homo sapiens, WM 266-4, WM2664, Melanoma, BRAF V600D, RAS WT
Text: as §1

IPC298 = test: Proliferation, CellTiter-Glo 72 h, IPC298; type: cell-based; settings: Homo sapiens, IPC-298, IPC298, Melanoma, BRAF WT, NRAS Q61L
Text: as §1

HeyA8 = test: Proliferation, CellTiter-Glo 72 h, HeyA8; type: cell-based; settings: Homo sapiens, HEY A8, HeyA8, Ovarian, BRAF G464E, KRAS G12D
Text: as §1

HCT116 = test: Proliferation, CellTiter-Glo 72 h, HCT116; type: cell-based; settings: Homo sapiens, HCT-116, HCT116, Colorectal, BRAF WT, KRAS G13D
Text: as §1

Calu-6 = test: Proliferation, CellTiter-Glo 72 h, Calu-6; type: cell-based; settings: Homo sapiens, Calu-6, NSCLC, BRAF WT, KRAS Q61K
Text: as §1

HuP-T4 = test: Proliferation, CellTiter-Glo 72 h, HuP-T4; type: cell-based; settings: Homo sapiens, HuP-T4, Pancreas, BRAF WT, KRAS G12V
Text: as §1

PSN1 = test: Proliferation, CellTiter-Glo 72 h, PSN1; type: cell-based; settings: Homo sapiens, PSN1, Pancreas, BRAF WT, KRAS G12R
Text: as §1

TCC-PAN2 = test: Proliferation, CellTiter-Glo 72 h, TCC-PAN2; type: cell-based; settings: Homo sapiens, TCC-PAN2, Pancreas, BRAF WT, KRAS G12R
Text: as §1

NCI-H2073 = test: Proliferation, CellTiter-Glo 72 h, NCI-H2073; type: cell-based; settings: Homo sapiens, NCI-H2073, NSCLC, BRAF WT, RAS WT
Text: as §1

HCC827 = test: Proliferation, CellTiter-Glo 72 h, HCC827; type: cell-based; settings: Homo sapiens, HCC827, NSCLC, BRAF WT, RAS WT
Text: as §1

PC3 = test: Proliferation, CellTiter-Glo 72 h, PC3; type: cell-based; settings: Homo sapiens, PC-3, PC3, Prostate, BRAF WT, RAS WT
Text: as §1

A375 [2] = test: Anti-proliferative effect in mechanistic A375 models, parental A375; type: cell-based; settings: Homo sapiens, A-375, 72 hours, CellTiter-Glo
Experimental: (§2) To investigate the activity of Compound A in BRAF V600 mutant melanoma cells refractory to BRAF and/or MEK inhibitors, the anti-proliferative activity of Compound A in the mechanistic models derived from the BRAF V600 melanoma cell line A375 expressing mutations of MEK1/2, NRAS, or a splice variant of BRAF was evaluated.

A375/BRAFp61-V600E = test: Anti-proliferative effect in mechanistic A375 models, A375/BRAFp61-V600E; type: cell-based; settings: Homo sapiens, A-375, doxycycline-induced, 72 hours
Experimental: as §2

A375/MEK1 Q56P = test: Anti-proliferative effect in mechanistic A375 models, A375/MEK1 Q56P; type: cell-based; settings: Homo sapiens, A-375, doxycycline-induced, 72 hours
Experimental: as §2

A375/MEK1 C121S = test: Anti-proliferative effect in mechanistic A375 models, A375/MEK1 C121S; type: cell-based; settings: Homo sapiens, A-375, doxycycline-induced, 72 hours
Experimental: as §2

A375/MEK1 E203K = test: Anti-proliferative effect in mechanistic A375 models, A375/MEK1 E203K; type: cell-based; settings: Homo sapiens, A-375, doxycycline-induced, 72 hours
Experimental: as §2

A375/MEK2 Q60P = test: Anti-proliferative effect in mechanistic A375 models, A375/MEK2 Q60P; type: cell-based; settings: Homo sapiens, A-375, doxycycline-induced, 72 hours
Experimental: as §2

A375/NRAS Q61K = test: Anti-proliferative effect in mechanistic A375 models, A375/NRAS Q61K; type: cell-based; settings: Homo sapiens, A-375, doxycycline-induced, 72 hours
Experimental: as §2

[3] = tested on: A375 derivatives expressing mutations of MEK1/2, NRAS, or a splice variant of BRAF; test: IC50 shift of resistant A375 models versus parental A375; type: cell-based, human
Experimental: as §2

[4] = Clinical PK of Compound A tablets, once daily, fasted subjects; type: in vivo, human; settings: plasma; for AUC: day 1 of dosing, read-out: Mean plasma exposure over the dose interval of 24 hours (AUCtau); for Cmax: oral tablets, fasted subjects, read-out: Maximum plasma concentration (Cmax)
Experimental: Compound A was formulated with hydroxypropylmethylcellulose/Hypromellose, colloidal silicon dioxide, microcrystalline cellulose, polyvinylpyrrolidone/Povidone and magnesium stearate, and formed into tablets containing about 50 mg of Compound A. A number of tablets sufficient to provide a desired dosage were administered once daily to fasted subjects. Subjects were treated at doses of 100 mg once per day, or 200 mg once per day. Serial blood samples for PK assessments were collected up to 48 hours after the first dose of Compound A (Cycle 1 Day 1), and up to 24 hours after multiple doses (Cycle 1 Day 15). […] Mean plasma exposure over the dose interval of 24 hours (AUCtau) on day 1 of dosing was 5679 hr·ng/ml and 10019 hr·ng/ml after the 100 mg and 200 mg doses of Compound A, respectively. […] As this study is on-going, all data presented are considered preliminary.

[5] = tested on: Calu-6 (KRAS Q61K), HCT116 (KRAS G13D); test: Cell-based proliferation, Calu-6 and HCT116; settings: Homo sapiens
[6] = tested on: Calu-6 (KRAS Q61K) xenograft; test: Calu-6 xenograft in nude mice; type: in vivo
Experimental: (§3) Female nude tumor bearing Calu6 mice, n=6 per group were randomized into treatment groups on day 17 following tumor implantation, when the average tumor volume was 180 mm3. Treatments with compound A were initiated on Day 17 and continued for 16 days. Dosing volume was 10 mL/kg. Tumor volumes were collected at the time of randomization and twice weekly thereafter for the study duration.
(§4) Regressions were also achieved in a second human NSCLC model, NCI-H358, at the 200 mg/kg QD dose in mice and in the human ovarian Hey-A8 xenograft at doses as low as 30 mg/kg QD in mice.

[7] = tested on: Calu-6 (KRAS Q61K) xenograft; test: Calu-6 xenograft in nude rats; type: in vivo
[8] = tested on: NCI-H358 (KRAS G12C) xenograft; test: NCI-H358 xenograft in mice; type: in vivo; settings: 200 mg/kg QD
Experimental: (§5) SCID beige female tumor-bearing NCI-H358 mice, n=8 per group, were randomized into 3 groups 14 days post tumor cell inoculation with an average tumor volume range of 259.44-262.47 mm^3.
as §4

[9] = tested on: human ovarian Hey-A8 xenograft; test: Hey-A8 ovarian xenograft in mice; type: in vivo; settings: doses as low as 30 mg/kg QD
Experimental: as §4

KRASmt NSCLC models = test: Human KRAS-mutant xenograft models, overall statements; type: in vivo
Experimental: as §5, §3
Nude female mice tumor bearing NCI-H358, n=8 per group, were randomized into 2 groups with an average tumor volume range of 275.74 mm3.

[10] = tested on: Calu-6 human NSCLC xenograft; test: Calu-6 NSCLC subcutaneous xenograft, single agents and combination; type: in vivo; settings: for durability of tumor response: under treatment, 42 days post dosing
Experimental: Calu-6 NSCLC tumors were established in athymic female mice by subcutaneous injection of 10 million cells in 50% Matrigel™ into the flank of each mouse. […] A-B) Tumor volumes of treatment groups vs. days post randomization. C) Mean percent change in body weight from initial.
Combined treatment with Compound A and Compound B led to increased depth and durability of tumor response compared to either single agent in the human NSCLC xenograft Calu-6. […] Combining Compound A dosed at 30 mg/kg qd with Compound B dosed at either 50 mg/kg qd or 75 mg/kg q2d achieved 66% and 51% regressions, respectively, 17 days post dosing. In addition to the increased depth of response, the combination of Compound A and Compound B also led to an increased durability of response.

[11] = tested on: DUSP6 (dual specificity phosphatase 6); test: DUSP6 pharmacodynamic biomarker in vivo; settings: subject receiving a dosage associated with efficacious plasma levels
Text: In addition, an efficacious dosage can be determined by monitoring biomarkers indicative of MAP kinase pathway inhibition.

[12] = tested on: non-small cell lung cancer (NSCLC); test: Phase I dose finding study, tumor response (RECIST); type: in vivo, human; settings: one NSCLC subject, 1200 mg QD, preliminary
Experimental: The recommended starting dose and regimen of Compound A single agent in this study is 100 mg QD orally based on the preclinical safety, tolerability data, PK/PD data obtained in preclinical studies, as well as exploratory human efficacious dose range projection. […] For maximum flexibility of dosing, Compound A may be prepared as 50 mg and/or 100 mg tablets for oral administration. A proposed formulation for clinical use of Compound A includes Compound A combined with one or more excipients selected from hydroxypropylmethylcellulose (Hypromellose), colloidal silicon dioxide, microcrystalline cellulose, polyvinylpyrrolidone (Povidone), and magnesium stearate, and can be prepared in the form of tablets for oral administration, suitably containing 50 mg or 100 mg of Compound A. This was further confirmed by preliminary results obtained from the clinical trial.

Calu6 (KRAS^Q61K) = test: 3 day proliferation assay, Calu6; type: cell-based; settings: Homo sapiens, Calu-6, 72 h, read-out: IC50 cell growth
HeyA8 (KRAS^G12D) = test: 3 day proliferation assay, HeyA8; type: cell-based; settings: Homo sapiens, HEY A8, 72 h, read-out: IC50 cell growth
AsPC-1 (KRAS^G12D) = test: 3 day proliferation assay, AsPC-1; type: cell-based; settings: Homo sapiens, ASPC1, 72 h, read-out: IC50 cell growth
PSN1 (KRAS^G12R) = test: 3 day proliferation assay, PSN1; type: cell-based; settings: Homo sapiens, 72 h, read-out: IC50 cell growth

Cc1ccc(NC(=O)c2ccnc(C(F)(F)F)c2)cc1-c1cc(OCCO)nc(N2CCOCC2)c1 [Compound A, N-(3-(2-(2-hydroxyethoxy)-6-morpholinopyridin-4-yl)-4-methylphenyl)-2-(trifluoromethyl)isonicotinamide]
IC50 (A375 [1]): 0.24 µM
IC50 (WM2664): 0.45 µM
IC50 (IPC298): 0.25 µM
IC50 (HeyA8): 0.21 µM
IC50 (HCT116): 0.47 µM
IC50 (Calu-6): 1.5 µM
IC50 (HuP-T4): 0.65 µM
IC50 (PSN1): 0.68 µM
IC50 (TCC-PAN2): 0.42 µM
IC50 (NCI-H2073): 18.2 µM
IC50 (HCC827): > 20 µM
IC50 (PC3): > 20 µM
IC50 (A375 [2]): 0.42 µM
IC50 (A375/BRAFp61-V600E): 0.72 µM
IC50 (A375/MEK1 Q56P): 1.15 µM
IC50 (A375/MEK1 C121S): 1.14 µM
IC50 (A375/MEK1 E203K): 1.05 µM
IC50 (A375/MEK2 Q60P): 1.12 µM
IC50 (A375/NRAS Q61K): 0.95 µM
increase in IC50 in resistant models [3]: 2-3 fold
AUC ([4]; human, oral, 100 mg): 5680 ng·h/mL
AUC ([4]; human, oral, 200 mg): 10000 ng·h/mL
half-life ([4]; human, oral, in patients): 23 to 24 h
Cmax ([4]; human, single 100 mg dose): 447 ng/mL
Cmax ([4]; human, single 200 mg dose): 889 ng/mL
accumulation ratio ([4]; once daily dosing of 100 mg): 1.8
IC50 [5]: 0.2 to 1.2 µM
anti-tumor effect ([6]; mice, 30 mg/kg QD): Tumor stasis
anti-tumor effect ([6]; nude mice, 100, 200, and 300 mg/kg once daily (QD)): regressions
anti-tumor effect ([7]; nude rats, 75 and 150 mg/kg QD): regressions
anti-tumor effect ([7]; rats, 35 mg/kg QD): Tumor stasis
anti-tumor effect [8]: Regressions
anti-tumor effect [9]: Regressions
single agent anti-tumor activity (KRASmt NSCLC models; H358, Calu6, H727 models, oral daily): showed single agent activity
tolerability (body weight loss) (KRASmt NSCLC models; in all cases (KRAS-mutant xenograft models)): well tolerated as judged by lack of significant body weight loss
T/C ([10]; Compound A 30 mg/kg qd, oral, 17 days post dosing): 26%
durability of tumor response [10]: progressed under treatment
predicted half-life (Predicted human PK): ~9 h
in vivo levels of DUSP6 [11]: drop
partial response according to RECIST [12]: −35%

CNC[C@@H](NC(=O)c1ccc(-c2nc([C@H]3CC[C@H](O)[C@@H](F)C3)cnc2N)cc1F)c1cc(F)cc(Br)c1 [Compound B, 4-(3-amino-6-((1S,3S,4S)-3-fluoro-4-hydroxycyclohexyl)pyrazin-2-yl)-N-((S)-1-(3-bromo-5-fluorophenyl)-2-(methylamino)ethyl)-2-fluorobenzamide]
IC50 (Calu6 (KRAS^Q61K)): < 1 µM
IC50 (HeyA8 (KRAS^G12D)): < 1 µM
IC50 (AsPC-1 (KRAS^G12D)): < 1 µM
IC50 (PSN1 (KRAS^G12R)): < 1 µM
regressions ([10]; Compound B 50 mg/kg qd, oral, 17 days post dosing): 22%
T/C ([10]; Compound B 75 mg/kg q2d, oral, 17 days post dosing): 4%
durability of tumor response [10]: progressed under treatment

Cn1cnc2c(F)c(Nc3ccc(Br)cc3Cl)c(C(=O)NOCCO)cc21 [Selumetinib]
IC50 (A375 [2]): 0.036 µM
IC50 (A375/BRAFp61-V600E): > 10 µM
IC50 (A375/MEK1 Q56P): 5.35 µM
IC50 (A375/MEK1 C121S): 2.33 µM
IC50 (A375/MEK1 E203K): 1.81 µM
IC50 (A375/MEK2 Q60P): 4.84 µM
IC50 (A375/NRAS Q61K): 5.5 µM

CCCS(=O)(=O)Nc1ccc(F)c(C(=O)c2c[nH]c3ncc(-c4ccc(Cl)cc4)cc23)c1F [Vemurafenib]
IC50 (A375 [2]): 0.066 µM
IC50 (A375/BRAFp61-V600E): 8.51 µM
IC50 (A375/MEK1 Q56P): 9.62 µM
IC50 (A375/MEK1 C121S): 8.7 µM
IC50 (A375/MEK1 E203K): 5.58 µM
IC50 (A375/MEK2 Q60P): 5.28 µM
IC50 (A375/NRAS Q61K): 9.38 µM
